Paper PMC5007619 (Biochemistry, 2016)

Tests used:
[1] = molecular target: p300 (Homo sapiens, UniProt Q09472); assay: […]acetyl-CoA nucleosome acetyltransferase assay; type: biochemical
[2] = molecular target: CBP (Homo sapiens, UniProt Q92793); assay: H3K18ac Western blot of nucleosome acetylation by purified CBP; type: biochemical
Chain of CBP (Q92793 2-2442): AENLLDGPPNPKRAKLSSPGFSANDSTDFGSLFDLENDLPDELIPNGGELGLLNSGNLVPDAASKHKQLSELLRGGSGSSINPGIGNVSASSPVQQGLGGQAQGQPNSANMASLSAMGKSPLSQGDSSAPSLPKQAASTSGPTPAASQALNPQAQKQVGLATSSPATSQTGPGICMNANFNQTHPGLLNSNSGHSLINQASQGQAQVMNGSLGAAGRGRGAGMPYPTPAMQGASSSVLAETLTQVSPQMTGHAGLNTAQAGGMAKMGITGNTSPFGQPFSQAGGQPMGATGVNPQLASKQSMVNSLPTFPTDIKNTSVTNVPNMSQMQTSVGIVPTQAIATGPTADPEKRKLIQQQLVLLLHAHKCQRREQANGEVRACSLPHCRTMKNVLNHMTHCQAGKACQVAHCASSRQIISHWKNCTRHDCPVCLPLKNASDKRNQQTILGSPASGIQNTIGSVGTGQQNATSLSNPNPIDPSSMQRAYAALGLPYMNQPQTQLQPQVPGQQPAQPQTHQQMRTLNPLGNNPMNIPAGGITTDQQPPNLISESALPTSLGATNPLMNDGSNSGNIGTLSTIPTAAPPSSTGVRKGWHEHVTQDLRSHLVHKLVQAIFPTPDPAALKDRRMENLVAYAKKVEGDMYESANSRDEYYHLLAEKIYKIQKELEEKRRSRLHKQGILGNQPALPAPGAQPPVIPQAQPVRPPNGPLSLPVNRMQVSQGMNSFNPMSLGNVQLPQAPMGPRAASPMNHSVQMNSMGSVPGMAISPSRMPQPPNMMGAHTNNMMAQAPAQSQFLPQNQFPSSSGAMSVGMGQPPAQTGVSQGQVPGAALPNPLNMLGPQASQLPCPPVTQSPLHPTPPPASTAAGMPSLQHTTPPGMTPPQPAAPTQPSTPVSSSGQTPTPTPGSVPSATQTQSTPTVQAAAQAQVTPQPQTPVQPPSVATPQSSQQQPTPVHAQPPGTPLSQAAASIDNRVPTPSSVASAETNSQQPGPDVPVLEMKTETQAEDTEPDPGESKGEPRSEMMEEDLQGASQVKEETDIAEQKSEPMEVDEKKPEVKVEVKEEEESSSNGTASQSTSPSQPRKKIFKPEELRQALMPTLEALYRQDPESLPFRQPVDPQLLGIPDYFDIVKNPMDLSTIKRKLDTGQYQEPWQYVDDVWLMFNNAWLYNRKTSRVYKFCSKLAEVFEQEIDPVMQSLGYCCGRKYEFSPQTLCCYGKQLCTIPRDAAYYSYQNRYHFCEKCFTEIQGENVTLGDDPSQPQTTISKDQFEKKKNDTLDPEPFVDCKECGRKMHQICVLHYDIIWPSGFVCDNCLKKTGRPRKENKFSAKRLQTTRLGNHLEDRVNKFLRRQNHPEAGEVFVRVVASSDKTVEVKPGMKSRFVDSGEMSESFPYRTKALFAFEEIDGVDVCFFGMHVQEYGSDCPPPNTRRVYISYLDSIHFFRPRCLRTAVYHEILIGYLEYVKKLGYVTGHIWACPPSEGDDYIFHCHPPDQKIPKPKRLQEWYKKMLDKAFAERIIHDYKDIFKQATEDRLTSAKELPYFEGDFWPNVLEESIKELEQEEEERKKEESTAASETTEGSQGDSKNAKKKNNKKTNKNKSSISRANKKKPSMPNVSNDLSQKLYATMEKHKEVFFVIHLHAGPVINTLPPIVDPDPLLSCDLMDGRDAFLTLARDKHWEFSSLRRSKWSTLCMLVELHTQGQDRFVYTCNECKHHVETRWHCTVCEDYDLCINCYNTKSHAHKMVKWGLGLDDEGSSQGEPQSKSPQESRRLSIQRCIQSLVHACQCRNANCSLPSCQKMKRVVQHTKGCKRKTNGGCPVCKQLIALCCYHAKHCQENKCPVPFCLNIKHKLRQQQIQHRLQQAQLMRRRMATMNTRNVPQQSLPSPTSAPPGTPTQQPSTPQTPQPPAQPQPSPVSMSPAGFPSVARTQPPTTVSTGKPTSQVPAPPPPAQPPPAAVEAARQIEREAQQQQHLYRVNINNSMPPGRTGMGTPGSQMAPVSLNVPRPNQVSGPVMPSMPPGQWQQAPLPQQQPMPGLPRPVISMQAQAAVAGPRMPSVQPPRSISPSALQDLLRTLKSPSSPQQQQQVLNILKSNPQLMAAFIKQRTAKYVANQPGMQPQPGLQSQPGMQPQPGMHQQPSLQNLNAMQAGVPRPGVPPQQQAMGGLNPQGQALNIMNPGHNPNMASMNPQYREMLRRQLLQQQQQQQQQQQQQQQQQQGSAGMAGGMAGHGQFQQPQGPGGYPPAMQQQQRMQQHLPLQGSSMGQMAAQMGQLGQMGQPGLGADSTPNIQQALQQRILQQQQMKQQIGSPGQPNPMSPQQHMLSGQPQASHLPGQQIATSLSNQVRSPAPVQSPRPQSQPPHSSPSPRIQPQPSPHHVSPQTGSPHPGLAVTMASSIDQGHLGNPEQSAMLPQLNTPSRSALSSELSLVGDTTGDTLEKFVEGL

Chain of p300 (Q09472 2-2414): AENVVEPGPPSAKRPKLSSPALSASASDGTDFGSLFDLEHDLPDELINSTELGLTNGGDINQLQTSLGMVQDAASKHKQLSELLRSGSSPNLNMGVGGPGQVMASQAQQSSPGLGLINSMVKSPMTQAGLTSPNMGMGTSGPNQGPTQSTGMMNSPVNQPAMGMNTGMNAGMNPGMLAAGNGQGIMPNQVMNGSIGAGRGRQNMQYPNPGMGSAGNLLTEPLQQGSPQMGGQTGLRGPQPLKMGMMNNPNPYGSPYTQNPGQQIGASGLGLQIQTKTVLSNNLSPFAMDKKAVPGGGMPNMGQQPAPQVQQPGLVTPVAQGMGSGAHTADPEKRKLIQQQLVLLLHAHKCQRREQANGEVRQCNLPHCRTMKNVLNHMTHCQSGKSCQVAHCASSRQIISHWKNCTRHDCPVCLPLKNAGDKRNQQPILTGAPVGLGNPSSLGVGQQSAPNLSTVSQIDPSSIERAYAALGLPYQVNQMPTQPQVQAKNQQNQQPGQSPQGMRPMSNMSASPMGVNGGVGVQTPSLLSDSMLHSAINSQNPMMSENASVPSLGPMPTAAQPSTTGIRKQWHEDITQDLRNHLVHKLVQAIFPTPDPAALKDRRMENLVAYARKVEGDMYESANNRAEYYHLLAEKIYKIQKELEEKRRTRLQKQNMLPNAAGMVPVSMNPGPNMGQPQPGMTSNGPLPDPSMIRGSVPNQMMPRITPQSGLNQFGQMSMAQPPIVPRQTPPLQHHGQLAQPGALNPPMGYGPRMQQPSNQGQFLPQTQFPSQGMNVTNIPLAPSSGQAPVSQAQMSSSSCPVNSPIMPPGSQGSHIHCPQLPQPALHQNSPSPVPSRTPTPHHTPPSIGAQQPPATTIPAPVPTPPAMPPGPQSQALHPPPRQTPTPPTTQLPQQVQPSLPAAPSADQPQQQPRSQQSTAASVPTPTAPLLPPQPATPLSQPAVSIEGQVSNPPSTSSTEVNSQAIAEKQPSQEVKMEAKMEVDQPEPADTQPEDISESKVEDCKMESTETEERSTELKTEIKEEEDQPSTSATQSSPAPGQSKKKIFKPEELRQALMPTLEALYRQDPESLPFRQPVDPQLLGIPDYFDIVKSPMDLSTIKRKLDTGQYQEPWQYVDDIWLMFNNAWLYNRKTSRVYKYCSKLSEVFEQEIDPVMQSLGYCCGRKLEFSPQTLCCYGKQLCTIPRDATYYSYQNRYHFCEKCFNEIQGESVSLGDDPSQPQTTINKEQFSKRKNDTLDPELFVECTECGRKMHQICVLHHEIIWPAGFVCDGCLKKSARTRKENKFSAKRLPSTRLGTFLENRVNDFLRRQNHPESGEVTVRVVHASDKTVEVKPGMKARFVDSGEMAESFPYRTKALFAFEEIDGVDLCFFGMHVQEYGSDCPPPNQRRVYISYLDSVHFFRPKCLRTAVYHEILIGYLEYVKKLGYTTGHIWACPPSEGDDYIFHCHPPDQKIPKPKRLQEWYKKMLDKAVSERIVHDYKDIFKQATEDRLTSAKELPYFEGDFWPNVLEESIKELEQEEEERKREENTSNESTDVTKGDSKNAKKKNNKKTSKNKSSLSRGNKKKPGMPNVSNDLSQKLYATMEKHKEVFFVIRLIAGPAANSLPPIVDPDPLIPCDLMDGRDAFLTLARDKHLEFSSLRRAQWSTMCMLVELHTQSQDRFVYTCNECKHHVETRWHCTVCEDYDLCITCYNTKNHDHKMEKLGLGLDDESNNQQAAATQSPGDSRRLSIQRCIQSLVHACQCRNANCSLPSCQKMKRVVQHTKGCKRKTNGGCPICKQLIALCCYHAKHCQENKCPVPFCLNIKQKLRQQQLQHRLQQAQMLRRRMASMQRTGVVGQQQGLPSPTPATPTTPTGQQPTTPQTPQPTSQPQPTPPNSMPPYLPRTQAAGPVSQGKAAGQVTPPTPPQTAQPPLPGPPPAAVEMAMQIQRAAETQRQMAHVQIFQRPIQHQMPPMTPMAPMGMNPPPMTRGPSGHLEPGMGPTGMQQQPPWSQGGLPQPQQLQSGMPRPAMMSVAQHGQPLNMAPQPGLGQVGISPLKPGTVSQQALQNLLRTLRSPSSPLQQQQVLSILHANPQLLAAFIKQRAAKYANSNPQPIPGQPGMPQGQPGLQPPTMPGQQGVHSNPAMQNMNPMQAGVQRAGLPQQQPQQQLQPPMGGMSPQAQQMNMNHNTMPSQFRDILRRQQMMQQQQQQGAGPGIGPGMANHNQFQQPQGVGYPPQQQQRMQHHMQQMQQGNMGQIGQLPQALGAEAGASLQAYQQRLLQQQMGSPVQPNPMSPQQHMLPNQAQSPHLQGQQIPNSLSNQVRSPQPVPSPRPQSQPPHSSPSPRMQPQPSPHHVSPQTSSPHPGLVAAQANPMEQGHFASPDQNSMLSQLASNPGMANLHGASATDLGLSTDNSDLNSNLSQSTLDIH

In the case of CCC(=O)N1CCOc2c(cc(-c3ccc(OC)c(OC)c3)cc2OC[C@H]2CCCN(C)C2)C1 [I-CBP112, 1-[7-(3,4-dimethoxyphenyl)-9-{[(3S)-1-methylpiperidin-3-yl]-methoxy}-2,3,4,5-tetrahydro-1,4-benzoxazepin-4-yl]propan-1-one], the EC50 [1] is reported as 11 ± 3 µM and the EC50 [2] is reported as roughly 2 µM.
